Here are results for 12 molecules from US20250114374A1, “BCL-2 INHIBITORS” (Newave Pharmaceutical Inc., priority 2021, published 2025).

Like-named read-outs stand apart in the source and are kept apart here.

In the assay the test system is RS4; 11 with G101V mutation. Nature of the assay: In vitro anti-proliferation assay (ATPlite luminescence) in BCL-2-dependent ALL cell line RS4;11 with G101V mutation. The format is cell-based. Particulars: read-out: RS411-G101V IC50. A digest of the protocol: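 RS4;11 G101V cells at about 1×10^4 per well were exposed to a range of compound concentrations for about 72 h in medium with 10% FBS. Cellular ATP was measured by ATPlite luminescence after lysis, and IC50 was derived from the dose-response.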
(In ATP-based viability assays light output follows the ATP content of the culture.)

[1] abbreviates: cellular anti-proliferative IC50, about 72 hours, medium with 10% FBS, ATPlite.

For the molecule `CC(C)Oc1ccccc1[C@@H]1CN([C@@H]2CCOc3c(F)cc(F)cc32)CCN1C1CC2(CCN(c3ccc(C(=O)NS(=O)(=O)c4cc5c(c([N+](=O)[O-])c4)N[C@H](C4CCOCC4)CO5)c(N4c5cc6cc[nH]c6nc5O[C@H]5COCC[C@@H]54)c3)CC2)C1` [Example 215, 4-(2-((R)-4-((R)-6,8-difluorochroman-4-yl)-2-(2-isopropoxyphenyl)piperazin-1-yl)-7-azaspiro[3.5]nonan-7-yl)-N-(((R)-5-nitro-3-(tetrahydro-2H-pyran-4-yl)-3,4-dihydro-2H-benzo[b][1,4]oxazin-7-yl)sulfonyl)-2-((5aS,9aR)-6,7,9,9a-tetrahydro-1H-pyrano[3,4-b]pyrrolo[3′,2′:5,6]pyrido[3,2-e][1,4]oxazin-5(5aH)-yl)benzamide], the IC50 (usually the midpoint of a concentration-inhibition curve) (Homo sapiens, RS4-11, 72 h) amounted to 48 nM.

With `CC(C)Oc1ccccc1[C@@H]1CN([C@H]2COCc3cc(F)c(F)cc32)CCN1C1CC2(CCN(c3ccc(C(=O)NS(=O)(=O)c4cc5c(c([N+](=O)[O-])c4)N[C@H](C4CCOCC4)CO5)c(N4c5cc6cc[nH]c6nc5O[C@H]5COCC[C@@H]54)c3)CC2)C1` [Example 216, 4-(2-((R)-4-((R)-6,7-difluoroisochroman-4-yl)-2-(2-isopropoxyphenyl)piperazin-1-yl)-7-azaspiro[3.5]nonan-7-yl)-N-(((R)-5-nitro-3-(tetrahydro-2H-pyran-4-yl)-3,4-dihydro-2H-benzo[b][1,4]oxazin-7-yl)sulfonyl)-2-((5aS,9aR)-6,7,9,9a-tetrahydro-1H-pyrano[3,4-b]pyrrolo[3′,2′:5,6]pyrido[3,2-e][1,4]oxazin-5(5aH)-yl)benzamide], under “Homo sapiens, RS4-11, 72 h”, the IC50 stood at 30.6 nM.

With `CC(C)Oc1ccccc1[C@@H]1CN([C@@H]2COCc3cc(F)c(F)cc32)CCN1C1CC2(CCN(c3ccc(C(=O)NS(=O)(=O)c4cc5c(c([N+](=O)[O-])c4)N[C@H](C4CCOCC4)CO5)c(N4c5cc6cc[nH]c6nc5O[C@H]5COCC[C@@H]54)c3)CC2)C1` [Example 217, 4-(2-((R)-4-((S)-6,7-difluoroisochroman-4-yl)-2-(2-isopropoxyphenyl)piperazin-1-yl)-7-azaspiro[3.5]nonan-7-yl)-N-(((R)-5-nitro-3-(tetrahydro-2H-pyran-4-yl)-3,4-dihydro-2H-benzo[b][1,4]oxazin-7-yl)sulfonyl)-2-((5aS,9aR)-6,7,9,9a-tetrahydro-1H-pyrano[3,4-b]pyrrolo[3′,2′:5,6]pyrido[3,2-e][1,4]oxazin-5(5aH)-yl)benzamide], the half-maximal inhibitory concentration (IC50) (Homo sapiens, RS4-11, 72 h) came out at 94.9 nM.

`CC(C)Oc1ccccc1[C@@H]1CN([C@H]2CCOc3nc(N4CCOC[C@@H]4C)c(F)cc32)CCN1C1CC2(CCN(c3ccc(C(=O)NS(=O)(=O)c4cc5c(c([N+](=O)[O-])c4)N[C@H](C4CCOCC4)CO5)c(N4c5cc6cc[nH]c6nc5O[C@H]5COCC[C@@H]54)c3)CC2)C1` [Example 218, 4-(2-((R)-4-((S)-6-fluoro-7-((S)-3-methylmorpholino)-3,4-dihydro-2H-pyrano[2,3-b]pyridin-4-yl)-2-(2-isopropoxyphenyl)piperazin-1-yl)-7-azaspiro[3.5]nonan-7-yl)-N-(((R)-5-nitro-3-(tetrahydro-2H-pyran-4-yl)-3,4-dihydro-2H-benzo[b][1,4]oxazin-7-yl)sulfonyl)-2-((5aS,9aR)-6,7,9,9a-tetrahydro-1H-pyrano[3,4-b]pyrrolo[3′,2′:5,6]pyrido[3,2-e][1,4]oxazin-5(5aH)-yl)benzamide]: the IC50 (Homo sapiens, RS4-11, 72 h) amounted to 121 nM. Take `CC(C)Oc1ccccc1[C@@H]1CN([C@@H]2CCOc3nc(N4CCOC[C@@H]4C)c(F)cc32)CCN1C1CC2(CCN(c3ccc(C(=O)NS(=O)(=O)c4cc5c(c([N+](=O)[O-])c4)N[C@H](C4CCOCC4)CO5)c(N4c5cc6cc[nH]c6nc5O[C@H]5COCC[C@@H]54)c3)CC2)C1` [Example 219, 4-(2-((R)-4-((R)-6-fluoro-7-((S)-3-methylmorpholino)-3,4-dihydro-2H-pyrano[2,3-b]pyridin-4-yl)-2-(2-isopropoxyphenyl)piperazin-1-yl)-7-azaspiro[3.5]nonan-7-yl)-N-(((R)-5-nitro-3-(tetrahydro-2H-pyran-4-yl)-3,4-dihydro-2H-benzo[b][1,4]oxazin-7-yl)sulfonyl)-2-((5aS,9aR)-6,7,9,9a-tetrahydro-1H-pyrano[3,4-b]pyrrolo[3′,2′:5,6]pyrido[3,2-e][1,4]oxazin-5(5aH)-yl)benzamide]: the IC50 (Homo sapiens, RS4-11, 72 h) stood at 56.3 nM.

For `CC(C)Oc1ccccc1[C@@H]1CN([C@@H]2COc3c(F)cc(F)cc3C2)CCN1C1CC2(CCN(c3ccc(C(=O)NS(=O)(=O)c4cc5c(c([N+](=O)[O-])c4)N[C@H](C4CCOCC4)CO5)c(N4c5cc6cc[nH]c6nc5O[C@H]5COCC[C@@H]54)c3)CC2)C1` [Example 220, 4-(2-((R)-4-((S)-6,8-difluorochroman-3-yl)-2-(2-isopropoxyphenyl)piperazin-1-yl)-7-azaspiro[3.5]nonan-7-yl)-N-(((R)-5-nitro-3-(tetrahydro-2H-pyran-4-yl)-3,4-dihydro-2H-benzo[b][1,4]oxazin-7-yl)sulfonyl)-2-((5aS,9aR)-6,7,9,9a-tetrahydro-1H-pyrano[3,4-b]pyrrolo[3′,2′:5,6]pyrido[3,2-e][1,4]oxazin-5(5aH)-yl)benzamide], the half-inhibitory concentration (IC50) (Homo sapiens, RS4-11, 72 h) was determined as 261 nM. With `CC(C)Oc1ccccc1[C@@H]1CN([C@H]2COc3c(F)cc(F)cc3C2)CCN1C1CC2(CCN(c3ccc(C(=O)NS(=O)(=O)c4cc5c(c([N+](=O)[O-])c4)N[C@H](C4CCOCC4)CO5)c(N4c5cc6cc[nH]c6nc5O[C@H]5COCC[C@@H]54)c3)CC2)C1` [Example 221, 4-(2-((R)-4-((R)-6,8-difluorochroman-3-yl)-2-(2-isopropoxyphenyl)piperazin-1-yl)-7-azaspiro[3.5]nonan-7-yl)-N-(((R)-5-nitro-3-(tetrahydro-2H-pyran-4-yl)-3,4-dihydro-2H-benzo[b][1,4]oxazin-7-yl)sulfonyl)-2-((5aS,9aR)-6,7,9,9a-tetrahydro-1H-pyrano[3,4-b]pyrrolo[3′,2′:5,6]pyrido[3,2-e][1,4]oxazin-5(5aH)-yl)benzamide], the half-inhibitory concentration (IC50) (Homo sapiens, RS4-11, 72 h) stood at 130 nM. Consider `CC(C)Oc1ccccc1[C@@H]1CN(c2ccccc2)CCN1C1CC2(CCN(c3ccc(C(=O)NS(=O)(=O)c4cc5c(c([N+](=O)[O-])c4)N[C@H](C4CCOCC4)CO5)c(N4c5cc6cc[nH]c6nc5O[C@H]5COCC[C@@H]54)c3)CC2)C1` [Example 222, 2-[(3R,8S)-2,5-dioxa-9,15,17-triazatetracyclo[8.7.0.0^{3,8}.0^{12,16}]heptadeca-1(10),11,13,16-tetraen-9-yl]-4-{2-[(2R)-2-(2-isopropoxyphenyl)-4-phenylpiperazin-1-yl]-7-azaspiro[3.5]nonan-7-yl}-N-[(3R)-5-nitro-3-(oxan-4-yl)-3,4-dihydro-2H-1,4-benzoxazin-7-ylsulfonyl]benzamide], for which, under setting [1], the IC50 is 240 nM. `CC(C)Oc1ccccc1[C@@H]1CN(c2ccncc2)CCN1C1CC2(CCN(c3ccc(C(=O)NS(=O)(=O)c4cc5c(c([N+](=O)[O-])c4)N[C@H](C4CCOCC4)CO5)c(N4c5cc6cc[nH]c6nc5O[C@H]5COCC[C@@H]54)c3)CC2)C1` [Example 223, 4-(2-((R)-2-(2-isopropoxyphenyl)-4-(pyridin-4-yl)piperazin-1-yl)-7-azaspiro[3.5]nonan-7-yl)-N-(((R)-5-nitro-3-(tetrahydro-2H-pyran-4-yl)-3,4-dihydro-2H-benzo[b][1,4]oxazin-7-yl)sulfonyl)-2-((5aS,9aR)-6,7,9,9a-tetrahydro-1H-pyrano[3,4-b]pyrrolo[3′,2′:5,6]pyrido[3,2-e][1,4]oxazin-5(5aH)-yl)benzamide]: the half-maximal inhibitory concentration (IC50) (Homo sapiens, RS4-11, 72 h) was 223 nM. Consider `CC(C)Oc1ccccc1[C@@H]1CN(c2cccnc2)CCN1C1CC2(CCN(c3ccc(C(=O)NS(=O)(=O)c4cc5c(c([N+](=O)[O-])c4)N[C@H](C4CCOCC4)CO5)c(N4c5cc6cc[nH]c6nc5O[C@H]5COCC[C@@H]54)c3)CC2)C1` [Example 224, 2-[(3R,8S)-2,5-dioxa-9,15,17-triazatetracyclo[8.7.0.0^{3,8}.0^{12,16}]heptadeca-1(10),11,13,16-tetraen-9-yl]-4-{2-[(2R)-2-(2-isopropoxyphenyl)-4-(pyridin-3-yl)piperazin-1-yl]-7-azaspiro[3.5]nonan-7-yl}-N-[(3R)-5-nitro-3-(oxan-4-yl)-3,4-dihydro-2H-1,4-benzoxazin-7-ylsulfonyl]benzamide], for which, under setting [1], the concentration for half-maximal inhibition (IC50) is 136 nM. As to `CC(C)Oc1ccccc1[C@@H]1CN(c2ccccn2)CCN1C1CC2(CCN(c3ccc(C(=O)NS(=O)(=O)c4cc5c(c([N+](=O)[O-])c4)N[C@H](C4CCOCC4)CO5)c(N4c5cc6cc[nH]c6nc5O[C@H]5COCC[C@@H]54)c3)CC2)C1` [Example 225, 2-[(3R,8S)-2,5-dioxa-9,15,17-triazatetracyclo[8.7.0.0^{3,8}.0^{12,16}]heptadeca-1(10),11,13,16-tetraen-9-yl]-4-{2-[(2R)-2-(2-isopropoxyphenyl)-4-(pyridin-2-yl)piperazin-1-yl]-7-azaspiro[3.5]nonan-7-yl}-N-[(3R)-5-nitro-3-(oxan-4-yl)-3,4-dihydro-2H-1,4-benzoxazin-7-ylsulfonyl]benzamide], the IC50 under setting [1] came to 180 nM. Consider `CC(C)Oc1ccccc1[C@@H]1CN(C2CCC(C)(C)CC2)CCN1C1CC2(CCN(c3ccc(C(=O)NS(=O)(=O)c4cc5c(c([N+](=O)[O-])c4)N[C@H](C4CCOCC4)CO5)c(N4c5cc6cc[nH]c6nc5O[C@H]5COCC[C@@H]54)c3)CC2)C1` (stereo partly drawn) [Example 226, 4-{2-[(2R)-4-(4,4-dimethylcyclohexyl)-2-(2-isopropoxyphenyl)piperazin-1-yl]-7-azaspiro[3.5]nonan-7-yl}-2-[(3R,8S)-2,5-dioxa-9,15,17-triazatetracyclo[8.7.0.0^{3,8}.0^{12,16}]heptadeca-1(10),11,13,16-tetraen-9-yl]-N-[(3R)-5-nitro-3-(oxan-4-yl)-3,4-dihydro-2H-1,4-benzoxazin-7-ylsulfonyl]benzamide], for which, under setting [1], the concentration for half-maximal inhibition (IC50) stood at 62.6 nM.
